Test results published in ChEMBL document CHEMBL3301472, “MMV Malaria Box HIV and cytotoxicity screening”.

Assays:
[1] = test system: Human immunodeficiency virus 1; assay: MMV: HIV JRFL CCR5-tropic replication-competent virus, virus & compound washed out Day 1 pi, P24 ELISA Day 7 pi, U87-CD4-CCR5, % inhibition at 5 mM compound; format: functional; parameters: dose or concentration left out as unconfirmed; conditions: Human immunodeficiency virus 1, JR-FL
[2] = MMV: MTT Cytotoxicity Assay Day 7 pi of Assay #11 (NO washout), U87-CD4-CXCR4 cells, % cell death @ 5mM compound; format: toxicity, cell-based; conditions: human, u87-cd4-cxcr4, 5000 µM
[3] = MMV: MTT Cytotoxicity Assay Day 3 pi, U87-CD4-CCR5 cells, % cell death @ 5mM compound; format: toxicity, cell-based; conditions: human, u87-cd4-ccr5, 5000 µM
[4] = MMV: MTT Cytotoxicity Assay Day 7 pi of Assay #6 (compound washed out Day 1 pi), U87-CD4-CCR5 cells, % cell death @ 5mM compound; format: toxicity, cell-based; conditions: human, u87-cd4-ccr5, 5000 µM
[5] = MMV: MTT Cytotoxicity Assay Day 7 pi of Assay #10 (NO washout), U87-CD4-CCR5 cells, % cell death @ 5mM compound; format: toxicity, cell-based; conditions: human, u87-cd4-ccr5, 5000 µM
[6] = MMV: MTT Cytotoxicity Assay Day 3 pi, U87-CD4-CXCR4 cells, % cell death @ 5mM compound; format: toxicity, cell-based; conditions: human, u87-cd4-cxcr4, 5000 µM
[7] = MMV: MTT Cytotoxicity Assay Day 7 pi of Assay #7 (compound washed out Day 1 pi), U87-CD4-CXCR4 cells, % cell death @ 5mM compound; format: toxicity, cell-based; conditions: human, u87-cd4-cxcr4, 5000 µM

Row | Compound | inhibition [1] [%] | % Cell Death [2] | % Cell Death [3] | % Cell Death [4] | % Cell Death [5] | % Cell Death [6] | % Cell Death [7]
1 | CN1CCN(c2ccc(Nc3c4ccccc4nc4ccccc34)cc2)CC1 | 6 | -32 | 11 | 22 | 19 | 22 | -14
2 | CCOc1cc(CNC(C)C(O)c2ccccc2)cc(Cl)c1OCC (stereo not given) |  | 73 | 40 | 32 | 67 | 89 | 25
3 | O=C(NC1CCN(Cc2ccccc2)CC1)c1cc2nc(-c3ccc(Cl)s3)cc(C(F)(F)F)n2n1 |  | 11 | -2 | -12 | 46 | 31 | -15
4 | O=C(NCC(c1ccsc1)N1CCCCCC1)c1ccc(C(F)(F)F)cc1 (stereo not given) | 1 | 12 | 10 | 12 | 19 | 23 | -26
5 | CN1CCN(c2ncnc3c2[nH]c2ccc(Cl)cc23)CC1 | 10 | 1 | -11 | 29 | 31 | 27 | -25
6 | CC(C)CNC(=O)c1c(N)n(CCc2ccccc2F)c2nc3ccccc3nc12 | 3 | 99 | 0 | 4 | 35 | 47 | -6
7 | Cc1ccc(-c2cc(C(=O)Nc3ccc(S(=O)(=O)N4CCCCC4)cc3)[nH]n2)c(O)c1 | 6 | 16 | -5 | 18 | 10 | 11 | -29
8 | CCOC(=O)C1=C(C)N=c2sc(=Cc3cc(Cl)ccc3O)c(=O)n2C1c1ccc(OC)cc1 (stereo not given) | 1 | -46 | -27 | 10 | 11 | 15 | -6
9 | COc1ccc(-c2nc(NC(=O)CS(=O)(=O)c3ccc(F)cc3)sc2C)cc1 | -1 | 71 | 41 | -7 | 10 | 29 | 9
10 | O=C(NCc1ccco1)C1CCN(S(=O)(=O)c2ccc(Cl)cc2)CC1 | 1 | 23 | 22 | 37 | 18 | 12 | -15
11 | COc1ccc(N2CCN(C(CNC(=O)C3CCCCC3)c3ccc4c(c3)OCO4)CC2)cc1 (stereo not given) | 10 | 71 | 17 | 25 | 38 | 63 | 6
12 | COc1cc2cc(C(=O)Nc3ccccc3)c(N)nc2cc1OC | 9 | 106 | 75 | 0 | 95 | 43 | 51
13 | CC(=O)c1ccc(NC(=O)CSc2nc(-c3ccccc3Cl)ns2)cc1 | 7 | -33 | 57 | 7 | 41 | 51 | 8
14 | Cc1sc2ncnc(Sc3nc4ccccc4[nH]3)c2c1C | -1 | -15 | 16 | -6 | 27 | 18 | -5
15 | COCCNC(=O)c1ccc(OC2CCN(Cc3ccc(F)c(F)c3)CC2)c(Cl)c1 | 9 | -22 | 31 | 20 | 15 | 4 | -5
16 | CCC(=O)Nc1nnc(Cc2ccc(OC)c(OC)c2)s1 | -1 | -23 | 17 | -1 | 9 | 21 | -14
17 | CCCCOC(=O)c1ccc(Nc2cc(C)nc3ccc(OC)cc23)cc1 | 0 | -45 | 32 | 16 | 21 | 30 | -10
18 | Cc1ccc(CSCc2ccc(C(=O)NC3CC3)o2)cc1 | 2 | -2 | 23 | 18 | -6 | 12 | -23

Row | Compound | inhibition [1] [%] | % Cell Death [2] | % Cell Death [3] | % Cell Death [4] | % Cell Death [5] | % Cell Death [6] | % Cell Death [7]
19 | COc1ccc(Nc2cc(C)nc(NCc3ccccc3)n2)cc1 |  | 73 | 41 | 30 | 92 | 94 | 30
20 | Cc1cc(Nc2cccc(F)c2)nc(NCc2ccccc2)n1 | 5 | -41 | 21 | 6 | 20 | 33 | -12
21 | C=CC12CCN(CC1)C(C(O)c1ccnc3ccc(OC)cc13)C2.Cl (stereo not given) | -2 | -24 | -14 | -12 | 27 | 27 | -23
22 | Cc1cccc(Nc2nc(N)c3ccccc3n2)c1.Cl | 5 | 71 | 7 | 28 | 43 | 43 | -15
23 | CN(C)c1ccc(-c2nc3cc(N)ccc3[nH]2)cc1 | 0 | -20 | 22 | -1 | 2 | 19 | -21
24 | Cl.Clc1cc(Br)ccc1-c1ccc(CNCC2CCNCC2)o1 | 4 | -60 | 15 | -9 | 0 | 27 | 4
25 | Cc1cc(NC(=O)c2ccc(-c3ccccc3)cc2)no1 | 4 | -1 | -16 | -24 | 32 | 43 | -27
26 | Cc1cc(C)c2nc(N3CCC(C(=O)NCCCN4CCC(N5CCCCC5)CC4)CC3)sc2c1 | 1 | -37 | -8 | 5 | -39 | 8 | -20
27 | CCn1c(SCC(=O)Nc2cc(C(F)(F)F)ccc2Cl)nc2ccccc2c1=O | 8 | 17 | -1 | 23 | 19 | 81 | -27
28 | CCOc1cccc2sc(N(Cc3cccnc3)C(=O)C3CCCCC3)nc12 | 4 | 52 | 2 | 34 | 65 | 9 | 8
29 | CC(O)(c1ccc(Cl)cc1)C(CN1CCCCC1)c1ccccc1.Cl (stereo not given) | 3 | -5 | -11 | 24 | 19 | 3 | -24
30 | O=c1nc(C=Cc2ccc(Cl)cc2)oc2ccccc12 | 1 | -47 | 50 | 7 | 26 | 20 | -17
31 | CN(C)c1ccc(N2C(N)=NC(N)=NC2(C)C)cc1 | 1 | 21 | -12 | 14 | 4 | 21 | 12
32 | COc1ccc(Nc2nc(NCc3ccccc3)c3ccccc3n2)cc1 | 2 | -24 | 18 | 21 | 41 | 28 | -30
33 | CCOc1ccc2nc(C)cc(Nc3ccc(Br)cc3)c2c1 |  | 106 | 82 | 26 | 108 | 64 | 72
34 | Clc1ccc2c(N3CCCC3)ccnc2c1 | 5 | -37 | 8 | 3 | 16 | 21 | 1
35 | CN(C)c1ccc(C(O)(c2ccc(N(C)C)cc2)c2ccc(N(C)C)cc2)cc1 [METHYLROSANILINE] |  | 71 | 2 | 3 | 23 | 98 | -2
